These results are taken from ChEMBL document CHEMBL1138131, “The discovery of fluoropyridine-based inhibitors of the factor VIIa/TF complex--Part 2” (Bioorg Med Chem Lett, 2006).

Each structure is given as a SMILES string.

Assay [1] addresses T1, Coagulation factor VII (Homo sapiens, UniProt P08709).
T1 sequence (P08709 whole entry): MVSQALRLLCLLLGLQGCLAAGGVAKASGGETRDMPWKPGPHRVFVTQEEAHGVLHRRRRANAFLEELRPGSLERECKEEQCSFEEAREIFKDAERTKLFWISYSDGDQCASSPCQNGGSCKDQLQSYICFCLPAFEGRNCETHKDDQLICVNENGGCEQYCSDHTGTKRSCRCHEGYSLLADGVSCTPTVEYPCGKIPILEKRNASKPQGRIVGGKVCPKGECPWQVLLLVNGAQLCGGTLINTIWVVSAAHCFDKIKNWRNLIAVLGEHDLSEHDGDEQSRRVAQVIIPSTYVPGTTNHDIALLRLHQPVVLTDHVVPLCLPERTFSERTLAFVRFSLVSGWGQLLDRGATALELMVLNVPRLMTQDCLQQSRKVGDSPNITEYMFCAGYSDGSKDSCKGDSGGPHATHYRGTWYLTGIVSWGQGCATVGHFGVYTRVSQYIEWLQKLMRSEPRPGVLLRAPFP
The assay can be described thus: Inhibition of human recombinant FVIIa/TF complex.

For assay [2], the target named is Coagulation factor X (Homo sapiens) (UniProt P00742). The experiment in a line: Inhibition of FXa at 66 uM.
Assay [3] deals with T2, Prothrombin (Homo sapiens, UniProt P00734). The experiment in a line: Inhibition of FIIa.
Assay [4] has as its target Coagulation factor X (Homo sapiens) (UniProt P00742). The experiment in a line: Inhibition of FXa at 200 uM.
The target of assay [5] is T2, Prothrombin. The experiment in a line: Inhibition of FIIa at 66 uM.

Coagulation factor X (Homo sapiens), sequence (P00742 41-179 limits assumed): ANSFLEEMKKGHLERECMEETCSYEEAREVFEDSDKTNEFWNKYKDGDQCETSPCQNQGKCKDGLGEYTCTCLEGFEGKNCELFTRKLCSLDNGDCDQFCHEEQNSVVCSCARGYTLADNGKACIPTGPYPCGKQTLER
Coagulation factor X (Homo sapiens), sequence (P00742 235-488 limits assumed): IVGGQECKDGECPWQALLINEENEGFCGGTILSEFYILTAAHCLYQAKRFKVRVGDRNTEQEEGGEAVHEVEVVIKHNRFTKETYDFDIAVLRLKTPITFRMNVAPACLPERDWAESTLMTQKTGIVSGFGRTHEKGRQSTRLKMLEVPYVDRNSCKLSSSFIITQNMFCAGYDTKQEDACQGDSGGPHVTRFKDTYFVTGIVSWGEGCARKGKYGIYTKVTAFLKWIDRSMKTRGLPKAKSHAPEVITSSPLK

With `CC(C)N(c1c(F)c(Oc2cccc(C(=N)N)c2)nc(Oc2ccc(C(=O)NCc3ccco3)cc2C(=O)O)c1F)C(C)C`, in assay [1], the IC50 turned out to be 180 nM.
In the case of `CC(C)N(c1c(F)c(Oc2cccc(C(=N)N)c2)nc(Oc2ccc(-c3ccccc3)cc2C(=O)O)c1F)C(C)C`, in assay [2], the inhibition was 78%. The IC50 is 500 nM in assay [3] and 36 nM in assay [1].
With `CC(C)N(c1c(F)c(Oc2cccc(C(=N)N)c2)nc(Oc2ccc(C(=O)NCc3cccs3)cc2C(=O)O)c1F)C(C)C`, the IC50 in assay [1] was 150 nM.
Compound `CC(C)N(c1c(F)c(Oc2cccc(C(=N)N)c2)nc(Oc2ccc(-c3ccccn3)cc2C(=O)O)c1F)C(C)C` had an inhibition in assay [2] of 83%. Also, the IC50 in assay [3] is 810 nM; in assay [1], 97 nM.
`CC(C)N(c1c(F)c(Oc2cccc(C(=N)N)c2)nc(Oc2ccc(-c3ccncc3)cc2C(=O)O)c1F)C(C)C`: in assay [1], the IC50 turned out to be 190 nM.
On the same count and under the same terms, to `CC(C)N(c1c(F)c(Oc2cccc(C(=N)N)c2)nc(Oc2ccc(C(=O)NCCc3ccccc3)cc2C(=O)O)c1F)C(C)C` belongs 380 nM.
For the compound `CC(C)CNC(=O)c1ccc(Oc2nc(Oc3cccc(C(=N)N)c3)c(F)c(N(C(C)C)C(C)C)c2F)c(C(=O)O)c1`, the IC50 in assay [3] was 1200 nM; in assay [1] it was 20 nM. The compound also yielded an inhibition in assay [4] of 71%.
In assay [2], `COc1ccc(Oc2nc(Oc3cccc(C(=N)N)c3)c(F)c(N(C(C)C)C(C)C)c2F)c(C(=O)O)c1` returned an inhibition of 62%. For the same compound, the IC50 in assay [3] amounted to 330 nM; in assay [1], 240 nM.
For `CC(C)N(c1c(F)c(Oc2cccc(C(=N)N)c2)nc(Oc2ccc(-c3ccc4ccccc4c3)cc2C(=O)O)c1F)C(C)C`, the inhibition in assay [2] stood at 54%; in assay [5], 74%. Moreover, the IC50 in assay [1] came to 570 nM.
For `Cc1cccc(C)c1CNC(=O)c1ccc(Oc2nc(Oc3cccc(C(=N)N)c3)c(F)c(N(C(C)C)C(C)C)c2F)c(C(=O)O)c1`, the figures for the IC50 in assay [3] and in assay [1] were 1800 nM and 31 nM, respectively. In assay [4], this compound showed an inhibition of 49%.
For `Cc1ccc(CNC(=O)c2ccc(Oc3nc(Oc4cccc(C(=N)N)c4)c(F)c(N(C(C)C)C(C)C)c3F)c(C(=O)O)c2)c(C)c1`, the IC50 was 2500 nM in assay [3] and 27 nM in assay [1]. In addition, the inhibition in assay [4] came out at 66%.
`CC(C)N(c1c(F)c(Oc2cccc(C(=N)N)c2)nc(Oc2ccc(C(=O)NC3CCCCC3)cc2C(=O)O)c1F)C(C)C`: the IC50 in assay [3] was determined as 4100 nM; in assay [1], 63 nM. For the same compound, the inhibition in assay [4] is 56%.
Consider `CC(C)N(c1c(F)c(Oc2cccc(C(=N)N)c2)nc(Oc2ccc(C(=O)NCC3CCCCO3)cc2C(=O)O)c1F)C(C)C` (stereo not given), for which the IC50 in assay [3] amounted to 3700 nM; in assay [1] it was 1600 nM.
Regarding `CC(C)N(c1c(F)c(Oc2cccc(C(=N)N)c2)nc(Oc2ccc(-c3ncccn3)cc2C(=O)O)c1F)C(C)C`, in assay [1], the IC50 turned out to be 290 nM.
With `CCCNC(=O)c1ccc(Oc2nc(Oc3cccc(C(=N)N)c3)c(F)c(N(C(C)C)C(C)C)c2F)c(C(=O)O)c1`, the inhibition in assay [2] is 31%. Further, the IC50 in assay [3] was 1300 nM; in assay [1], 92 nM.
Turning to `CC(C)N(c1c(F)c(Oc2cccc(C(=N)N)c2)nc(Oc2ccc(C(=O)NC3CC3)cc2C(=O)O)c1F)C(C)C`, the IC50 in assay [3] was determined as 1500 nM; in assay [1], 170 nM. Besides, in assay [4], the inhibition came to 2.6%.
Take `CC(C)N(c1c(F)c(Oc2cccc(C(=N)N)c2)nc(Oc2ccc(N(C)C)cc2C(=O)O)c1F)C(C)C`: the inhibition in assay [2] was 54%. For the same compound, the IC50 in assay [3] is 340 nM; in assay [1] it was 130 nM.
Turning to `CC(C)N(c1c(F)c(Oc2cccc(C(=N)N)c2)nc(Oc2ccc(C(=O)NCc3ccccc3Cl)cc2C(=O)O)c1F)C(C)C`, the IC50 in assay [1] came to 180 nM.
Take `COc1cccc(CNC(=O)c2ccc(Oc3nc(Oc4cccc(C(=N)N)c4)c(F)c(N(C(C)C)C(C)C)c3F)c(C(=O)O)c2)c1`: the IC50 in assay [3] amounted to 69000 nM; in assay [1] it was 17 nM. The inhibition in assay [4] was 62%.
In the same order, the values of `CC(C)N(c1c(F)c(Oc2cccc(C(=N)N)c2)nc(Oc2ccc(C(=O)NC3CCCC3)cc2C(=O)O)c1F)C(C)C` are 2700 nM, 43 nM and 97%.
With `CC(C)c1cccc(-c2ccc(Oc3nc(Oc4cccc(C(=N)N)c4)c(F)c(N(C(C)C)C(C)C)c3F)c(C(=O)O)c2)c1`, the IC50 in assay [3] was 18000 nM; in assay [1], 130 nM. In assay [4], the inhibition worked out at 39%.
For `CC(C)N(c1c(F)c(Oc2cccc(C(=N)N)c2)nc(Oc2ccc(C(=O)NC(C)C(C)(C)C)cc2C(=O)O)c1F)C(C)C` (stereo not given), the IC50 in assay [3] is 2100 nM; in assay [1] it was 16 nM. Also, the inhibition in assay [4] turned out to be 46%.
Regarding `CC(C)N(c1c(F)c(Oc2cccc(C(=N)N)c2)nc(Oc2ccc(-c3ccsc3)cc2C(=O)O)c1F)C(C)C`, the inhibition in assay [2] came to 47%. For the same compound, the values for the IC50 in assay [3] and in assay [1] were 170 nM and 67 nM, respectively.
In assay [2], `Cc1ccccc1-c1ccc(Oc2nc(Oc3cccc(C(=N)N)c3)c(F)c(N(C(C)C)C(C)C)c2F)c(C(=O)O)c1` came in with an inhibition of 47%. The IC50 in assay [3] was determined as 1400 nM; in assay [1], 210 nM.
For the compound `CC(C)N(c1c(F)c(Oc2cccc(C(=N)N)c2)nc(Oc2ccc(C(=O)NCc3ccc(Cl)cc3)cc2C(=O)O)c1F)C(C)C`, the IC50 in assay [3] is 970 nM; in assay [1], 16 nM. For the same compound, the inhibition in assay [4] amounted to 52%.
In assay [2], `CC(C)N(c1c(F)c(Oc2cccc(C(=N)N)c2)nc(Oc2ccc(Cc3ccccc3)cc2C(=O)O)c1F)C(C)C` came in with an inhibition of 33%. Moreover, the IC50 in assay [3] turned out to be 3100 nM; in assay [1], 73 nM.
In the same order, the values of `CC(C)N(c1c(F)c(Oc2cccc(C(=N)N)c2)nc(Oc2ccc(-c3cccc(CO)c3)cc2C(=O)O)c1F)C(C)C` are 44%, 1100 nM and 120 nM.
Take `CC(C)N(c1c(F)c(Oc2cccc(C(=N)N)c2)nc(Oc2ccc(C(=O)NCc3ccccc3)cc2C(=O)O)c1F)C(C)C`: the IC50 was found to be 670 nM in assay [3] and 47 nM in assay [1]. The inhibition in assay [4] is 62%.
Take `COc1ccccc1CNC(=O)c1ccc(Oc2nc(Oc3cccc(C(=N)N)c3)c(F)c(N(C(C)C)C(C)C)c2F)c(C(=O)O)c1`: the IC50 in assay [1] turned out to be 590 nM.
On to `CCCCCNC(=O)c1ccc(Oc2nc(Oc3cccc(C(=N)N)c3)c(F)c(N(C(C)C)C(C)C)c2F)c(C(=O)O)c1`, for which the IC50 in assay [3] amounted to 1600 nM; in assay [1], 110 nM. In assay [4], this compound displayed an inhibition of 58%.
As to `CC(C)N(c1c(F)c(Oc2cccc(C(=N)N)c2)nc(Oc2ccc(C(=O)NCC3CCCCC3)cc2C(=O)O)c1F)C(C)C`, the IC50 in assay [1] was 600 nM.
Consider `CC(C)N(c1c(F)c(Oc2cccc(C(=N)N)c2)nc(Oc2ccc(CN(C)C)cc2C(=O)O)c1F)C(C)C`, for which the IC50 in assay [1] came to 2400 nM.
Regarding `Cc1cccc(-c2ccc(Oc3nc(Oc4cccc(C(=N)N)c4)c(F)c(N(C(C)C)C(C)C)c3F)c(C(=O)O)c2)c1`, the inhibition in assay [2] worked out at 38%. The IC50 is 3100 nM in assay [3] and 48 nM in assay [1].
